Where “and” joins values, the source holds several entries; their conditions need not be identical. Equal entries are not always repeated. Values belong to the compound of their own block, whether it stands above or below them.
Legend:
5-HT1A receptor = conditions: cited from earlier work
[1] = target: T1, serotonin 5-HT1A receptor (Rattus norvegicus, UniProt P19327); assay: Affinity for the serotonin 5-HT1A receptor, displacement of [3H]8-OHDPAT (Hall et al.); assay type: binding; conditions: [3H]8-OHDPAT displacement; for inhibition at 0.1 µM: read-out: Receptor Affinities 5-HT1A (% @ ( ) μM); for IC50: read-out: Receptor Affinities 5-HT1A (IC50 (nM))
T1 construct: following the procedure of Hall et al., J. Neurochem; 44, 1685 (1985); from tissue
T1 sequence (P19327 1-422): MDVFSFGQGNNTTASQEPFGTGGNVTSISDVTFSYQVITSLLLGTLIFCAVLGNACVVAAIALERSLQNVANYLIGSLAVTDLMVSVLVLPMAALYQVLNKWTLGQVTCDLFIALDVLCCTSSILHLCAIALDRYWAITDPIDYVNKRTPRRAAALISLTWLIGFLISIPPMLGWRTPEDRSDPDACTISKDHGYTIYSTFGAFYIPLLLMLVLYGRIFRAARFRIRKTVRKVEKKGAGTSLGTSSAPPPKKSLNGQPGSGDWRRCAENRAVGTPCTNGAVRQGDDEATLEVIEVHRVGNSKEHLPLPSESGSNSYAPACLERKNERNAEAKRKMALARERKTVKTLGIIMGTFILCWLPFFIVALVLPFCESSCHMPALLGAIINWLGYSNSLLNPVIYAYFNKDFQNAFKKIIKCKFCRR
Source text: Affinity for the serotonin 5-HT1A receptor was established by testing the claimed compound's ability to displace [^3 H]8-OHDPAT (dipropylaminotetralin) from the 5-HT1A serotonin receptor following the procedure of Hall et al., J. Neurochem. 44, 1685 (1985). […] The anxiolytic activity of buspirone is believed to be, at least partially, due to its 5-HT1A receptor affinity (Vander Maclen et al., Eur. J. Pharmacol. 1986, 129 (1-2) 133-[…]).

[2] = tested on: dopamine synthesis (dopa accumulation; dopamine autoreceptor); assay: Inhibition of dopa accumulation in GBL-treated rats (method of Walters and Roth); assay type: in vivo, rat (male, Sprague-Dawley); conditions: rat; for Dopa Accumulation (% inhib. @ 10 mg/kg, sc), limbic (L): limbic (L) brain tissue; for Dopa Accumulation (% inhib. @ 10 mg/kg, sc), tissue not indicated: (L)/(S) mark not given; for Dopa Accumulation (% inhib. @ 10 mg/kg, sc), striatal (S): striatal (S) brain tissue
Experimental: The effect of the compounds of the invention on the synthesis of dopamine was established by the method of Walters and Roth, Naunyn-Schmiedeberg's Arch. Pharmacol. 296:5-14, 1976, in which rats (male, Sprague-Dawley, Charles River, 200-350 g) were administered vehicle or test drug ten minutes prior to the administration of gamma butyrolactone (GBL; 750 mg/kg, ip to inhibit dopaminergic impulse flow) and 20 minutes prior to NSD-1015 (100 mg/kg, ip to prevent the conversion of dopa to dopamine). Thirty minutes after NSD-1015 all rats were humanely euthenized and the nucleus accumbens and the straitum were removed for analysis. Following perchloric acid extraction of the tissue, the extracts were placed over alumina columns to collect and concentrate dopa and other catechols. This eluate was then subjected to HPLC analysis using electrochemical detection to quantify the levels of dopa present. Dopamine autoreceptor agonists, under the conditions used above, inhibit dopa accumulation.

dopamine D2 receptor = target: T2, dopamine D2 receptor (Rattus norvegicus, UniProt P61169); assay: Affinity for the dopamine D2 receptor, 3H-spiroperidol binding in homogenized limbic brain tissue; conditions: for inhibition at 1 µM: read-out: Receptor Affinities D2 (% @ ( ) μM); for IC50: read-out: Receptor Affinities D2 (IC50 (nM))
T2 construct: from tissue; host or cells: homogenized limbic brain tissue
T2 sequence (P61169 whole entry): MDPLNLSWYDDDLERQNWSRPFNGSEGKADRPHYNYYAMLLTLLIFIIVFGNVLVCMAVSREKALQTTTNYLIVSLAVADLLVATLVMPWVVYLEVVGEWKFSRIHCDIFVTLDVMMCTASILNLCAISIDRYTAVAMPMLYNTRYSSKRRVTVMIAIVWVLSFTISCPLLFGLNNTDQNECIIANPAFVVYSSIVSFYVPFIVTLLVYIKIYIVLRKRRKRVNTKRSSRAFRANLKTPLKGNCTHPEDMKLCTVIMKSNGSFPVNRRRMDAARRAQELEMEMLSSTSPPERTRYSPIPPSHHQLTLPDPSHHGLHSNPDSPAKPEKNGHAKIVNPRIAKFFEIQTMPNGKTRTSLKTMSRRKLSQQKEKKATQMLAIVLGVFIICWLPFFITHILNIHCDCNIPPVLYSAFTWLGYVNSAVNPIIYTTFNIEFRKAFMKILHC
Experimental: Affinity for the dopamine D2 receptor was established by the standard experimental test procedure of Fields, et al., Brain Res., 136, 578 (1977) and Yamamura et al., eds., Neurotransmitter Receptor Binding, Raven Press, New York (1978) wherein homogenized limbic brain tissue is incubated with ^3 H-spiroperidol and various concentrations of test compound, filtered and washed and shaken with Hydrofluor scintillation cocktail (National Diagnostics) and counted in a Packard 460 CD scintillation counter.

mouse locomotor activity = assay: Reduction of mouse locomotor activity (hypolocomotion; Martin and Bendensky); assay type: in vivo, mouse (male, CF-1); conditions: horizontal activity counts 10 to 20 minutes after dosing; for ED50: Mus musculus, ip, 20 min
Experimental: The antipsychotic activity of the compounds of the invention was further established by a determination of the compounds' ability to reduce mouse locomotor activity according to the method of Martin and Bendensky, J. Pharmacol. Exp. Therap. 229: 706-711, 1984, in which mice (male, CF-1, Charles River, 20-30 g) were injected with vehicle or various doses of each drug and locomotor activity was measured for 30 minutes using automated infrared activity monitors (Omnitech-8×8 inch open field) located in a darkened room. ED50's were calculated from the horizontal activity counts collected from 10 to 20 minutes after dosing using a nonlinear regression analysis with inverse prediction.

SMILES: O=C1CC2(CCCC2)CC(=O)N1CCCCNCC1COc2ccccc2O1 (single isomer, unassigned; (-)) [(-)-MDL 72832]
binding at the 5-HT1A receptor site relative to the dextrorotary isomer (5-HT1A receptor; (-)-isomer vs dextrorotary isomer, Fozard et al. 1987): 32 times

SMILES: CC(=O)Oc1ccc2c(c1)OCC(CNCCCOc1ccc3ccc(=O)oc3c1)O2 (stereo not drawn) [Example 11, 7-[3-[[(2,3-Dihydro-6-acetoxy-1,4-benzodioxin-2-yl)methyl]amino]propoxy]-2H-1-benzopyran-2-one]
inhibition at 0.1 µM [1]: 78% | Dopa Accumulation (% inhib. @ 10 mg/kg, sc), limbic (L) [2]: 37.7%

inhibition at 1 µM (dopamine D2 receptor): 66%
SMILES: COc1ccc2c(c1)OC(CNCCCOc1ccc3ccc(=O)oc3c1)CO2 (stereo not drawn) [Example 9, 7-[3-[[(2,3-Dihydro-7-methoxy-1,4-benzodioxin-2-yl)methyl]amino]propoxy]-2H-1-benzopyran-2-one]
Dopa Accumulation (% inhib. @ 10 mg/kg, sc), limbic (L) [2]: 21.7%

SMILES: O=C1CC2(CCCC2)CC(=O)N1CCCCNCC1COc2ccccc2O1 (stereo not drawn) [MDL 72832, 8-[4-(1,4-benzodioxan-2-ylmethylamino)butyl]-8-azaspiro[4.5]decane-7,9-dione]
selectivity as ligand for 5-HT1A receptors (in words) (5-HT1A receptor; Fozard et al. 1987): selective and stereospecific

inhibition at 0.1 µM [1]: 23%
SMILES: CN(CCCOc1ccc2ccc(=O)oc2c1)CC1COc2cc(O)ccc2O1 (stereo not drawn) [Example 15, 7-[3-[[(2,3-Dihydro-6-hydroxy-1,4-benzodioxin-2-yl)methyl]methylamino]propoxy]-2H-1-benzopyran-2-one]
Dopa Accumulation (% inhib. @ 10 mg/kg, sc), tissue not indicated [2]: 9.2%

IC50 [1]: 112 nM | IC50 (dopamine D2 receptor): 337 nM and 730 nM
SMILES: O=c1ccc2ccc(OCCCNCC3COc4cc(O)ccc4O3)cc2o1 (stereo not drawn) [Example 5, 7-[3-[[(2,3-Dihydro-6-hydroxy-1,4-benzodioxin-2-yl)methyl]amino]propoxy]-2H-1-benzopyran-2-one]
Dopa Accumulation (% inhib. @ 10 mg/kg, sc), limbic (L) [2]: 60% | Dopa Accumulation (% inhib. @ 10 mg/kg, sc), striatal (S) [2]: 18% | ED50 (mouse locomotor activity): 1.62 mg/kg | Hypolocomotion (ED50 mg/kg, ip) (mouse locomotor activity): 2.04 mg/kg

IC50 [1]: 6 nM | inhibition at 1 µM (dopamine D2 receptor): 100%
SMILES: O=c1ccc2ccc(OCCCNCC3COc4ccc(O)cc4O3)cc2o1 (stereo not drawn) [Example 6, 7-[3-[[(2,3-Dihydro-7-hydroxy-1,4-benzodioxin-2-yl)methyl]amino]propoxy]-2H-1-benzopyran-2-one]
Dopa Accumulation (% inhib. @ 10 mg/kg, sc), limbic (L) [2]: 76% | Dopa Accumulation (% inhib. @ 10 mg/kg, sc), striatal (S) [2]: 73% | ED50 (mouse locomotor activity): 0.19 mg/kg

SMILES: O=c1ccc2ccc(OCCCNC[C@H]3COc4ccc(O)cc4O3)cc2o1 [Example 20, (S)-7-[3-[[(2,3-Dihydro-7-hydroxy-1,4-benzodioxin-2-yl)methyl]amino]propoxy]-2H-1-benzopyran-2-one]
Dopa Accumulation (% inhib. @ 10 mg/kg, sc), limbic (L) [2]: 45%

SMILES: COc1ccc2c(c1)OC(CN(C)CCCOc1ccc3ccc(=O)oc3c1)CO2 (stereo not drawn) [Example 14]
Dopa Accumulation (% inhib. @ 10 mg/kg, sc), tissue not indicated [2]: 19.5%

SMILES: COc1cccc2c1OCC(CNCCCOc1ccc3ccc(=O)oc3c1)O2 (stereo not drawn) [Example 2, 7-[3-[[(2,3-Dihydro-5-methoxy-1,4-benzodioxin-2-yl)methyl]amino]propoxy]-2H-1-benzopyran-2-one]
Dopa Accumulation (% inhib. @ 10 mg/kg, sc), limbic (L) [2]: -12%

SMILES: COc1cc(OC)c2c(c1)OCC(CNCCCOc1ccc3ccc(=O)oc3c1)O2 (stereo not drawn) [Example 19]
Dopa Accumulation (% inhib. @ 10 mg/kg, sc), limbic (L) [2]: 23%

SMILES: O=C1CC2(CCCC2)CC(=O)N1CCCCN1CCN(c2ncccn2)CC1 [buspirone]
affinity for the 5-HT1A serotonin receptor subtype (in words) (5-HT1A receptor; standard for anxiolytic activity): potent affinity

IC50 [1]: 0.5 nM | IC50 (dopamine D2 receptor): 112 nM
SMILES: O=c1ccc2ccc(OCCCNCC3COc4ccccc4O3)cc2o1 (stereo not drawn) [Example 1, 7-[3-[[(2,3-Dihydro-1,4-benzodioxin-2-yl)methyl]amino]propoxy]-2H-1-benzopyran-2-one]
Dopa Accumulation (% inhib. @ 10 mg/kg, sc), limbic (L) [2]: 39% | Dopa Accumulation (% inhib. @ 10 mg/kg, sc), striatal (S) [2]: 1% | ED50 (mouse locomotor activity): 0.58 mg/kg

IC50 [1]: 104 nM
SMILES: O=c1ccc2ccc(OCCCNC[C@H]3COc4cc(O)ccc4O3)cc2o1 [Example 8, (S)-7-[3-[[(2,3-Dihydro-6-hydroxy-1,4-benzodioxin-2-yl)methyl]amino]propoxy]-2H-1-benzopyran-2-one]
Dopa Accumulation (% inhib. @ 10 mg/kg, sc), limbic (L) [2]: 50% | ED50 (mouse locomotor activity): 3.5 mg/kg

inhibition at 0.1 µM [1]: 81%
SMILES: CCN(CCCOc1ccc2ccc(=O)oc2c1)CC1COc2ccc(O)cc2O1 (stereo not drawn) [Example 12, 7-[3-[[(2,3-Dihydro-7-hydroxy-1,4-benzodioxin-2-yl)methyl]ethylamino]propoxy]-2H-1-benzopyran-2-one]
Dopa Accumulation (% inhib. @ 10 mg/kg, sc), limbic (L) [2]: 61.6% | ED50 (mouse locomotor activity): 1.6 mg/kg

SMILES: O=c1ccc2ccc(OCCCNCC3COc4cc(OCc5ccccc5)ccc4O3)cc2o1 (stereo not drawn) [Example 4, 7-[3-[[(2,3-Dihydro-6-phenylmethoxy-1,4-benzodioxin-2-yl)methyl]amino]propoxy]-2H-1-benzopyran-2-one]
Dopa Accumulation (% inhib. @ 10 mg/kg, sc), limbic (L) [2]: 20%

SMILES: O=c1ccc2ccc(OCCCNC[C@@H]3COc4cc(O)ccc4O3)cc2o1 [Example 10, (R)-7-[3-[[(2,3-Dihydro-6-hydroxy-1,4-benzodioxin-2-yl)methyl]amino]propoxy]-2H-1-benzopyran-2-one]
Dopa Accumulation (% inhib. @ 10 mg/kg, sc), tissue not indicated [2]: 24.0%

SMILES: O=c1ccc2c(OCCCNCC3COc4ccccc4O3)cccc2[nH]1 (stereo not drawn) [Example 7, 5-[3-[[(2,3-Dihydro-1,4-benzodioxin-2-yl)methyl]amino]propoxy]-2(1H)-quinolinone]
Dopa Accumulation (% inhib. @ 10 mg/kg, sc), limbic (L) [2]: 1.5% | Dopa Accumulation (% inhib. @ 10 mg/kg, sc), striatal (S) [2]: 51.3%

— patent publication US5189171A, “Antipsychotic benzodioxan derivatives” (American Home Products Corporation, priority 1992, dated 1993)
